Data on 13 compounds can be found in ChEMBL document CHEMBL1201862, “PubChem BioAssay data set” (2004).

Activity calls are given as the source filed them.

For one test, the target named is Cytochrome P450 3A4 (Homo sapiens, UniProt P08684).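 Also: CYP3A4 tested as one member of a cytochrome P450 panel screen.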
Test [1] deals with DNA dC->dU-editing enzyme APOBEC-3G (Homo sapiens, UniProt Q9HC16). It counts as functional.
A short description of test [2]: C. albicans growth with fluconazole, confirmation, fluorescence, retest (AID 2467). It is filed as functional, cell-based.
Test [3] can be described thus: inhibitors of intracellular T. cruzi replication, confirmation, NIH3T3 host cells, beta-gal luminescence (AID 2044).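 Also: intracellular parasites grown in NIH/3T3 mouse fibroblasts as host cells; luminescent beta-galactosidase reporter signal from transgenic T. cruzi replicating inside host cells; inhibitors lower the luminescence signal.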 It is filed as functional, cell-based.
Test [4] addresses DNA dC->dU-editing enzyme APOBEC-3A (Homo sapiens, UniProt P31941). Kind of test: Dose Response confirmation of small molecule APOBEC3A DNA Deaminase Inhibitors via a fluorescence-based single-stranded DNA deaminase assay. [Related pubchem assays (depositor defined):AID493011, AID493024]. It is filed as functional.
Test [5] is described as follows: cytotoxicity toward NIH3T3 fibroblasts, dose response, counter-screen, cell-based, ATP luminescence, mouse fibroblasts (AID 2010).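 Also: cells exposed to compound for about 90 hours before reading.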 It counts as functional. For orientation: The purpose of a counterscreen is to sort out artefacts and off-target activity.
A further test deals with Cytochrome P450 2C19 (Homo sapiens, UniProt P33261). Kind of test: Cytochrome panel assay with activity outcomes. Panel member name: p450-cyp2c19 Compounds with AC50 equal or less than 10 uM are considered active. It counts as functional. Particulars: read-out: AC50.
Chain of Cytochrome P450 2C19 (P33261 whole entry): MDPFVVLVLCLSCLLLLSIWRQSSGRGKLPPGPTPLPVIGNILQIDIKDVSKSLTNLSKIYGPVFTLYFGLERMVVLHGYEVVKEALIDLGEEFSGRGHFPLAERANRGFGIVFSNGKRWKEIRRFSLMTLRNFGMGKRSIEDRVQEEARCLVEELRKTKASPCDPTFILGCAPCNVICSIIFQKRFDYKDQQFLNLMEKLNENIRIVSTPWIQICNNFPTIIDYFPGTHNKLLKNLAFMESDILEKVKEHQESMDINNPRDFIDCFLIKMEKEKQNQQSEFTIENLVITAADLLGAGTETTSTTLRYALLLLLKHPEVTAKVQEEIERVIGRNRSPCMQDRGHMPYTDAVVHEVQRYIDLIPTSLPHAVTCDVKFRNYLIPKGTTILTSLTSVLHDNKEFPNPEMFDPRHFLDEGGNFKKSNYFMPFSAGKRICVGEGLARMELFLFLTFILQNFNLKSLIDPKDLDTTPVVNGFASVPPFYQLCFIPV
Test [6] is described as follows: NIH-3T3 fibroblast cytotoxicity, dose response, cytotoxicity control, cell-based, fluorescence, Alamar Blue, secondary assay (AID 2327).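 Also: NIH-3T3 mouse fibroblasts cultured with fluconazole at 8 µg/mL.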 It is filed as functional. Background: The colour change of resazurin is a common sign of viable cells or microbes.
The subject of the next test is INS1. Nature of the test: beta cell apoptosis inhibitors, cytokine rescue, dose response, luminescence, retest (AID 449756).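 Also: cell death triggered by IL-1 beta plus TNF-alpha plus IFN-gamma mixture; protective hits raise ATP signal compared with cytokine alone wells.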 The following applies: Rattus norvegicus. It counts as functional, cell-based.
The target in a further test is Beta-galactosidase (Escherichia coli, UniProt Q8VNN2). Nature of the test: PubChem AID 485352. It is filed as functional.
Chain of Beta-galactosidase (Q8VNN2 whole entry): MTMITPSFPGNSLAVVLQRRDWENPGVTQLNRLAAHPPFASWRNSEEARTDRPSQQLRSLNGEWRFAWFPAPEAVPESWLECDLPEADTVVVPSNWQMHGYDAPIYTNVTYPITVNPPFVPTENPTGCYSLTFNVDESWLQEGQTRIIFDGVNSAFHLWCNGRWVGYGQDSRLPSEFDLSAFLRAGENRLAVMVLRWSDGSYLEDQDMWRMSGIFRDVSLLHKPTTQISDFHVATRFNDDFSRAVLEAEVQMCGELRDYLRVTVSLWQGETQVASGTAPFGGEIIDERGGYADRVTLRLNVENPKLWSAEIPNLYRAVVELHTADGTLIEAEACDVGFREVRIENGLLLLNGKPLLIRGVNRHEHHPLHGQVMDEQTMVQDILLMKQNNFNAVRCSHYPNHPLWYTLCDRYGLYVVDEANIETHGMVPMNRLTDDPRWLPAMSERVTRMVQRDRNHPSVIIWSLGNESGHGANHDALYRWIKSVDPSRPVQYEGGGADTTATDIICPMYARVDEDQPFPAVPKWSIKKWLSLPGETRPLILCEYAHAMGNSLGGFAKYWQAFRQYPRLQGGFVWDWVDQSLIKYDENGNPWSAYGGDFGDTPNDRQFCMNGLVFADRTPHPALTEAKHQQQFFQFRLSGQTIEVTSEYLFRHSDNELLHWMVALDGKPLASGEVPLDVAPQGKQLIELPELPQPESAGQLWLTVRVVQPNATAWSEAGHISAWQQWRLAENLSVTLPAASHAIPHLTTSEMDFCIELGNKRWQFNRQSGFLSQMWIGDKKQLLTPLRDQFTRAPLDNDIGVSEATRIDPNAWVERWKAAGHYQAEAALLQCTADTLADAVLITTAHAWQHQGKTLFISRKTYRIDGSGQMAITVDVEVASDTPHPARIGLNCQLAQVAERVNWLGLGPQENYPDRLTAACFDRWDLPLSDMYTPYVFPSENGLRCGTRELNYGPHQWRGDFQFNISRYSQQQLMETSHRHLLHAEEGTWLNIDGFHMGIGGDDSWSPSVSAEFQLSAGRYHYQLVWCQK
The next test concerns H9c2. Nature of the test: cells. It is filed as functional, cell-based. Particulars: Rattus norvegicus, H9c2, Myocardium.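 Also: confirmatory concentration-response retest of ultra-high-throughput screening hits for modulation of myocardial damage; cell death induced by hydrogen peroxide oxidative stress; compound pretreatment for 60 min then peroxide exposure for 2 h; potency is for protecting the cells against peroxide damage rather than for killing them.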
In test [7] the target is T1, Type-1 angiotensin II receptor (Homo sapiens, UniProt P30556).
T1 sequence (P30556 whole entry): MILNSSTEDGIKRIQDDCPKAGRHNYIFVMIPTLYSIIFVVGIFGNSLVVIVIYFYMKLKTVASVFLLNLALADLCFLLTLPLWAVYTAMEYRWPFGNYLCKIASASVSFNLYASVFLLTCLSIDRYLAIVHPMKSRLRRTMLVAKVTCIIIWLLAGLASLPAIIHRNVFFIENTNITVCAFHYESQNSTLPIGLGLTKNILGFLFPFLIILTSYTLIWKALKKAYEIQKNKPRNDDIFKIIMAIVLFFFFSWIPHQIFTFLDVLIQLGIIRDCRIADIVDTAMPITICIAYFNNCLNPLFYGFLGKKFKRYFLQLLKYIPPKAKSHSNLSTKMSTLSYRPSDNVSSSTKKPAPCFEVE
Nature of the test: AT1 receptor antagonists, dose response, selectivity assay for APJ receptor antagonist project, cell-based, uHTS hits (AID 463214).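 Also: antagonist potency against angiotensin II stimulated AT1 response.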 It is filed as functional.

For a further test, the system named is CHO-K1. Nature of the test: Counterscreen for antagonists of the orexin 1 receptor (OX1R; HCRTR1): Homogeneous time resolved fluorescence (HTRF)-based cell-based dose response assay to identify antagonists of the parental CHO-K1 cell line. [Related pubchem assays (depositor defined):AID434989, AID435008, AID463079, AID485270, AID492963, AID492964, AID492965, AID493232, AID504699, AID504701]. It is filed as functional. Particulars: Cricetulus griseus.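 Also: potency for inhibition of ATP-stimulated IP1 production as antagonists.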

Test [8] has as its target T2, Orexin/Hypocretin receptor type 1 (Homo sapiens, UniProt O43613).
T2 sequence (O43613 whole entry): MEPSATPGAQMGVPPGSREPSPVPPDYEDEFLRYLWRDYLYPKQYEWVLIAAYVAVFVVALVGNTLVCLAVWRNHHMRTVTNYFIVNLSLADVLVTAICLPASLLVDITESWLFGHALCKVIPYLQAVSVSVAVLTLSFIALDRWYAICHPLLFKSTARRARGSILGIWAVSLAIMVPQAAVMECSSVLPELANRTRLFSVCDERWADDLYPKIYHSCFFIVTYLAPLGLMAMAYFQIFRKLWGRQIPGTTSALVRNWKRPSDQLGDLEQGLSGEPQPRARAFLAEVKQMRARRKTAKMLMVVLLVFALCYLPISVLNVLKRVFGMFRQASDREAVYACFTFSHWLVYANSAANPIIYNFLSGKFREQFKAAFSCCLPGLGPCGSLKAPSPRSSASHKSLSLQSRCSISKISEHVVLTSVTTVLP
Nature of the test: Homogeneous Time Resolved Fluorescence (HTRF)-based cell-based high throughput dose response assay for antagonists of the orexin 1 receptor (OX1R; HCRTR1). [Related pubchem assays (depositor defined):AID434989, AID435008, AID463079, AID485270, AID492963, AID492964, AID492965, AID493232, AID504717, AID504718]. It is filed as functional. In general terms: Time-resolved FRET reads energy transfer from a long-lived donor to a nearby acceptor.

Test [9] addresses T2, Orexin/Hypocretin receptor type 1. Kind of test: Fluorescence-based cell-based high throughput dose response assay for antagonists of the orexin 1 receptor (OX1R; HCRTR1). [Related pubchem assays (depositor defined):AID434989, AID435008, AID463079, AID485270, AID492963, AID492964, AID492965, AID493232, AID504717, AID504718]. It is filed as functional.
Test [10] is described as follows: Counterscreen for antagonists of the orexin 1 receptor (OX1R; HCRTR1): Fluorescence-based cell-based high throughput dose response assay to identify antagonists of the parental CHO cell line. [Related pubchem assays (depositor defined):AID434989, AID435008, AID463079, AID485270, AID492963, AID492964, AID492965, AID493232, AID504699, AID504701]. It counts as functional.

For test [11], the target named is Voltage-gated inwardly rectifying potassium channel KCNH2 (Homo sapiens, UniProt Q12809). Particulars: Potency.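 Also: confirmatory quantitative high-throughput screen measuring inhibition of hERG channel activity.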
Chain of Voltage-gated inwardly rectifying potassium channel KCNH2 (Q12809 whole entry): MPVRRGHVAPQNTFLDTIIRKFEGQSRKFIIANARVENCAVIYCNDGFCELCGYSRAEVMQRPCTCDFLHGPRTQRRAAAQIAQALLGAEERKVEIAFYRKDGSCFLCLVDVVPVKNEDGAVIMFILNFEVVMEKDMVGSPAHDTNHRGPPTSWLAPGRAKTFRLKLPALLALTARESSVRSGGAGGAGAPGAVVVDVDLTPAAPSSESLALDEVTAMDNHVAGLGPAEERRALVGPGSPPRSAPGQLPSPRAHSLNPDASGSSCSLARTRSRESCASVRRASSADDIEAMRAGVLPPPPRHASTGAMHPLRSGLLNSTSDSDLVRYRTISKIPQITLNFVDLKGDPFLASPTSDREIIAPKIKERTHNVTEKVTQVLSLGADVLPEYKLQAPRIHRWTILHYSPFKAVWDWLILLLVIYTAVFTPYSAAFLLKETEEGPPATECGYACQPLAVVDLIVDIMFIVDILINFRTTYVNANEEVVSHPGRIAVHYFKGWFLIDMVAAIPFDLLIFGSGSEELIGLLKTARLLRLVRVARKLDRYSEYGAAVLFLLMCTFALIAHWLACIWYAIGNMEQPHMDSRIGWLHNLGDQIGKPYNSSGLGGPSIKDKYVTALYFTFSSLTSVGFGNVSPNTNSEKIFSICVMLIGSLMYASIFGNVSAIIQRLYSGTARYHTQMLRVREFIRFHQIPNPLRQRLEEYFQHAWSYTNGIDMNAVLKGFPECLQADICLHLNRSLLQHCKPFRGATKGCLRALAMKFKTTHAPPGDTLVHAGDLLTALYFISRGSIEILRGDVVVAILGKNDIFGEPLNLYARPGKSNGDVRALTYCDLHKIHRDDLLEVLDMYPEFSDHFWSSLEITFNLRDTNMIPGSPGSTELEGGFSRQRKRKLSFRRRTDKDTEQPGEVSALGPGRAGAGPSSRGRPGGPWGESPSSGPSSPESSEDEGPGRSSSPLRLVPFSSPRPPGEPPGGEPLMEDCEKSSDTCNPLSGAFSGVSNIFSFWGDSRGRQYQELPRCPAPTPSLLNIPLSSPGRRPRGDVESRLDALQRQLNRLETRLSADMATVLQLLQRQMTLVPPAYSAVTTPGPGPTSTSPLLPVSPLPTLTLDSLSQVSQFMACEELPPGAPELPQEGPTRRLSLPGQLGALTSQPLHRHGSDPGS
Test [12] deals with T3, Heat shock factor protein 1 (Mus musculus, UniProt P38532).
T3 sequence (P38532 whole entry): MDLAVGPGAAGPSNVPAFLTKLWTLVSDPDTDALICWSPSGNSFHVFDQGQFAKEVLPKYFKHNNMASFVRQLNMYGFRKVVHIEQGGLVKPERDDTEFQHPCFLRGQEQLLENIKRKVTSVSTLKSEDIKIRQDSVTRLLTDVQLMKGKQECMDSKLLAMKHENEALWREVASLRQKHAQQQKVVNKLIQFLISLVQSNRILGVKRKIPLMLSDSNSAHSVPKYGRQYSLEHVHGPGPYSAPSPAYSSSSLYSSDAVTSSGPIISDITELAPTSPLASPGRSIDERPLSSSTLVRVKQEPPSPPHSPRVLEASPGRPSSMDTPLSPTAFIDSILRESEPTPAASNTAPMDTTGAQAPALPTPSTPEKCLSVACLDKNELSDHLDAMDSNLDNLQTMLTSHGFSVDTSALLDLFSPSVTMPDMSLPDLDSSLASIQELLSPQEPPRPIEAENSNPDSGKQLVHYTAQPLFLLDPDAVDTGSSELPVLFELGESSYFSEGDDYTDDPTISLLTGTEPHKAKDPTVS
Kind of test: HSF1 potentiators in luciferase reporter cells, confirmation, cell-based, NIH3T3, luminescence, dose retest (AID 435004).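 Also: stress induced by proteasome inhibitor MG132 added 30 min after compound; luciferase reporter driven by HSF1 response element in NIH3T3 cells; actives raise luminescence as potentiators of the MG132 stress response.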 It is filed as functional.

Test [13] concerns the target T4, E3 ubiquitin-protein ligase XIAP (Homo sapiens, UniProt P98170). Kind of test: Counter Screen using XIAP-Bir3 for Chemical Antagonists of Bir1/2 domains of IAP-family anti-apoptotic proteins. [Related pubchem assays (depositor defined):AID1018, AID1449, AID1514, AID1638, AID1749, AID1750, AID488957, AID488963].
In test [14] the target is T4, E3 ubiquitin-protein ligase XIAP. Nature of the test: XIAP antagonists, biochemical, IAP family, fluorescence polarization (AID 1018). It is filed as functional.
Test [15] deals with T5, Apoptotic protease-activating factor 1 (Homo sapiens, UniProt O14727).
T5 sequence (O14727 whole entry): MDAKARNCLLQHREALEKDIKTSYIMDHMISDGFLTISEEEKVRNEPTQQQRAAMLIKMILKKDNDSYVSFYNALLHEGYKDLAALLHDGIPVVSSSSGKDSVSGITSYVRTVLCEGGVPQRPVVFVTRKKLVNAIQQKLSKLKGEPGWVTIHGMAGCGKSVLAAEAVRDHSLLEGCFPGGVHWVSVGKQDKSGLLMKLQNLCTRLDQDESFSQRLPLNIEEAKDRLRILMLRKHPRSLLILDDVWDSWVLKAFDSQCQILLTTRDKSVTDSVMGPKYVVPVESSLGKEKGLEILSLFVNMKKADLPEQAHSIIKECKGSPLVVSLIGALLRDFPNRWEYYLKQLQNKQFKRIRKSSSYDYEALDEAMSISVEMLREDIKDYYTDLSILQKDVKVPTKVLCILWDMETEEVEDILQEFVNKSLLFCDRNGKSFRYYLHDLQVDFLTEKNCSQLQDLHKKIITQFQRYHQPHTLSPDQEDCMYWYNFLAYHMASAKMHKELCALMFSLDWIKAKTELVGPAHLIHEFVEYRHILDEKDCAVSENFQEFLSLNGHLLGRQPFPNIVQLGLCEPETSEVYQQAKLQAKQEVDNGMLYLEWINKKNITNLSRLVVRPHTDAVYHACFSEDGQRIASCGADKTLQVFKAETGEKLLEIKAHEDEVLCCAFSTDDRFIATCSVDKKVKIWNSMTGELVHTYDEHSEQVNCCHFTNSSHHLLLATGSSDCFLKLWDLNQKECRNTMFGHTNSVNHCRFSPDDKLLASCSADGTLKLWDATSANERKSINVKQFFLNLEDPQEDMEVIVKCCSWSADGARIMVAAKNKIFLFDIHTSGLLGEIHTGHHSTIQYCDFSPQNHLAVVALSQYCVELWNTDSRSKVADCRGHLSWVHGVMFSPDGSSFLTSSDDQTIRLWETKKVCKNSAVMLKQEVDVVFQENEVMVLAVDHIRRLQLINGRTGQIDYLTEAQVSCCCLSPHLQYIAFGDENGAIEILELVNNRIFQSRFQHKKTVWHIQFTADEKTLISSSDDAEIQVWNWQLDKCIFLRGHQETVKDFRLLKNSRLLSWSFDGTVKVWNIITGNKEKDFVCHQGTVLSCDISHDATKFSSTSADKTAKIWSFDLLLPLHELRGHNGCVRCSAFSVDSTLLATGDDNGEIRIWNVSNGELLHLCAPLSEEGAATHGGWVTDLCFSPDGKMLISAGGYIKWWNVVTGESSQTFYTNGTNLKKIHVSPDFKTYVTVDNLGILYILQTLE
It is filed as functional.

Another test has as its system Vero. Kind of test: Vero cell cytotoxicity, cytotoxicity control for flavivirus capping enzyme inhibitors (AID 588742). It counts as functional. The following applies: Chlorocebus sabaeus.
Test [16] is described as follows: insulin promoter down-regulators in MIN6 cells, imaging, high-content screening, mouse beta cells (AID 1628). It counts as functional.
Test [17] can be described thus: cytotoxicity in MIN6 insulinoma cells, dose response, cytotoxicity control, cell-based, mouse insulinoma (AID 2122).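 Also: confirmatory high-throughput counterscreen run to flag cytotoxic compounds; mouse MIN-6 beta cells carrying an insulin promoter eGFP reporter.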 It counts as functional.

T4 sequence (P98170 whole entry): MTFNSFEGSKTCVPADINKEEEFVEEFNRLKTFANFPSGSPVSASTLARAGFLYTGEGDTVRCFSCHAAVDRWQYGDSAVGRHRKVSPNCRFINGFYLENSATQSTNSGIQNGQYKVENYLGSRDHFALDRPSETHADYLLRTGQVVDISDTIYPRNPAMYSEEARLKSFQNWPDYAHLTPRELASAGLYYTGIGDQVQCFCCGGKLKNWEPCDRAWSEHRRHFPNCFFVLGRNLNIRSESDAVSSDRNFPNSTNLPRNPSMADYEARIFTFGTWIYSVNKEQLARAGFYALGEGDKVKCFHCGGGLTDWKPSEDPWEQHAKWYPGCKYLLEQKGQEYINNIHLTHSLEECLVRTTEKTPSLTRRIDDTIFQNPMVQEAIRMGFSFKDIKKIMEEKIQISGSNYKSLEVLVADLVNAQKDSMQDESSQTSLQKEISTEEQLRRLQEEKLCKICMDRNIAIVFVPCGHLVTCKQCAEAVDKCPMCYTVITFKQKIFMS
Chain of DNA dC->dU-editing enzyme APOBEC-3G (Q9HC16 whole entry): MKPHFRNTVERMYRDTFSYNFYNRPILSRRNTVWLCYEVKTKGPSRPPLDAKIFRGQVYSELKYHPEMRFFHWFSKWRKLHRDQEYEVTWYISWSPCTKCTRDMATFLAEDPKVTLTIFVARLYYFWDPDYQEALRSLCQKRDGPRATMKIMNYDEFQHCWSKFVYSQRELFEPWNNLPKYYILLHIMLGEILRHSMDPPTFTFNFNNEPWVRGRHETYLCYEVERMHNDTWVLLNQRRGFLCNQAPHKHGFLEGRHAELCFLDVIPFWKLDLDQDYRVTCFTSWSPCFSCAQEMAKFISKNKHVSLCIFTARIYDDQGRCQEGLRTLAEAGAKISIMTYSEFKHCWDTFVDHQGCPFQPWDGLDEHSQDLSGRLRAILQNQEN
Chain of Cytochrome P450 3A4 (P08684 whole entry): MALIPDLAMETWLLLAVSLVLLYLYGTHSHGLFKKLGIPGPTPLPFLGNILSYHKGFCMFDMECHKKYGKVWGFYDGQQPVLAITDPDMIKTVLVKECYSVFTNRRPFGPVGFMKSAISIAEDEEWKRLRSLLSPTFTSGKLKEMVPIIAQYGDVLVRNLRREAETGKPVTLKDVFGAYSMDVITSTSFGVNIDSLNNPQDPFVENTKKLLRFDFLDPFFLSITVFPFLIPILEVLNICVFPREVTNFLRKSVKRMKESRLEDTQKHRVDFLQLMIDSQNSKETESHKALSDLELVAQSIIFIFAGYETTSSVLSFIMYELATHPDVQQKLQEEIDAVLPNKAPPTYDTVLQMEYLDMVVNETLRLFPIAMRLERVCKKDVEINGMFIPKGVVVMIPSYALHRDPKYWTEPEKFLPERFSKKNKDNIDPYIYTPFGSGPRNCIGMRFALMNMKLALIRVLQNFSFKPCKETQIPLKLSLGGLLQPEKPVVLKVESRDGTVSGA
Chain of DNA dC->dU-editing enzyme APOBEC-3A (P31941 whole entry): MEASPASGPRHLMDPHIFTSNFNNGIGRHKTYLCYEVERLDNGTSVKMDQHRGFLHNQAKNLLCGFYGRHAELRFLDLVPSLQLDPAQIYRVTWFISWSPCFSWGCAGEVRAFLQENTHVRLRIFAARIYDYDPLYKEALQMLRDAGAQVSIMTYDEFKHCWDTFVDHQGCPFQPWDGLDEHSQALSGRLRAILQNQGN

For orientation: AC50 means the midpoint of the concentration-response curve, whichever way the signal moves. One may read the IC50 as the concentration that gives 50% inhibition. As usually defined, the EC50 is the concentration giving half of the maximal effect. For `CN(/C=C/C1=[N+](C)c2ccccc2C1(C)C)c1ccccc1`, the results for the AC50 at Cytochrome P450 3A4 and at Cytochrome P450 2C19 were 31.6 µM (inconclusive) and 0.00708 µM (inconclusive), respectively. Also, the IC50 in test [1] was 2.31 µM (active); in test [4], 1.67 µM (active). The EC50 in [2] was > 38 µM (not active); in test [3], 0.335 µM (active); in [5] it was > 60 µM (inconclusive); in test [6], > 160 µM (inactive).

`COc1ccc2c(c1)C(=O)[C@@H](O)[C@H](c1ccc(OC)c(Br)c1)O2`: in the test on INS1, the AC50 is 4.2 µM (active). Besides, on Beta-galactosidase, the EC50 was > 40 µM (inactive). The values for the IC50 (in the test with H9c2; in test [7]) were > 79 µM (inactive) and 34.6 µM (not active), respectively.

Consider `O=c1sc(Nc2ccccc2)nc2ccsc12`, for which the IC50 with CHO-K1 was > 66.2 µM (inactive); in [8] it was 2.43 µM (active); in test [9] it was 12.9 µM (inactive); in test [10], > 49.8 µM (inactive).

On to `CC(/C=C/c1cccc(Oc2ccc(F)cc2)c1)N(O)C(N)=O` (configuration not stated), for which the AC50 in [11] was 0.2 µM (inconclusive).

Take `COC(=O)C1NN=C(C(=O)c2ccc(Cl)cc2)C1c1ccc(OC)cc1` (configuration not stated): the EC50 on Beta-galactosidase was > 40 µM (inactive); in test [12] it was > 260 µM (inactive). Further, in test [7], the IC50 was 28.4 µM (not active).

Take `COC(=O)c1ccc(/C=C/C(=O)c2ccc(OC)cc2)cc1`: the IC50 in [13] was > 100 µM (inactive); in test [14], > 100 µM (not active).

In the case of `CCCCOC(=O)c1ccccc1C(=O)OCCCC` [DIBUTYL PHTHALATE], the half-maximal activity concentration (AC50) in test [11] is 79.4 µM (inconclusive).

With `CC1(C)Cc2cccc(OCC(=O)N3CCN(c4cccc(C(F)(F)F)c4)CC3)c2O1`, in test [15], the IC50 was > 100 µM (inactive).

In the case of `Cc1nn(CCC(=O)NN=C(S)Nc2ccccc2)c(C)c1Br`, the EC50 on Beta-galactosidase is > 40 µM (inactive). Moreover, the IC50 in [7] is listed as > 40 µM (not active).

Take `O=C=Nc1ccc(Cc2ccc(N=C=O)cc2)cc1`: the AC50 in test [11] was 79.4 µM (inconclusive).

Usually CC50 stands for the concentration at which the toxic effect on the cells reaches its halfway point. With `COc1ccc(C(=O)NC2CC(C)(C)Cc3occc32)cc1` (configuration not stated), the CC50 with Vero is > 40 µM (active).

As for `Cc1cc(NC(=O)c2cnn3c(C(F)(F)F)cc(-c4ccccc4)nc23)no1`, the IC50 is 1.99 µM (active) in [16] and > 16 µM (inactive) in [17].

As for `c1ccc(CCc2nc(-c3ccc(-n4cccc4)cc3)no2)cc1`, the IC50 was > 100 µM (inactive) in test [13] and > 100 µM (not active) in [14].
